Experimental data as given in patent publication US7029840B2 (priority 2000, dated 2006).
Where two headings read alike, the source gives them in different places.

Legend:
[1] = test system: intact cells of N. gonorrhoeae; assay: Stability of cells of N. gonorrhoeae in urine with sodium citrate, 14 days at room temperature (SDA, MOTA value); type: cell-based, N. gonorrhoeae ATCC 19424; conditions: 100 mM; for Average MOTA Value: urine
Description: (§1) The samples were spiked with cells of N. gonorrhoeae a final concentration 2500 cells/ml. Each sample was incubated for 14 days at room temperature. At specific time points (day 0, 6, and 14), 2.0-ml volumes of each sample (eight replicates) was centrifuged at 2000×g for 30 minutes at room temperature. The supernate was decanted and the cell pellet was resuspended with a 2.0-ml volume of BSA/PBS, and then centrifuged at 2000×g for 30 minutes at room temperature. Again, the supernatant was decanted and the cell pellet was resuspended with a 2.0-ml volume of CT/GC diluent. […] SDA was performed on the cell lysate as described in Example 1.

[2] = test system: N. gonorrhoeae plasmid DNA; conditions: for Average MOTA Value: 60 min room temperature after DNA spike; for protection of N. gonorrhoeae plasmid DNA from degradation in human urine by endogenous nucleases: sodium citrate at 10, 20, and 40 mM, EDTA at 10, 40, 100 mM (so in the source)
Description: Twenty-milliliter volumes of negative pooled urine were prepared with 10, 40, and 100 mM sodium citrate (final concentration); 10, 20, and 40 mM EDTA (final concentration); and without chemical additive. In addition, a 20-ml volume of negative pooled urine was heated for 30 minutes (heated-treated urine). The samples were incubated for 60 minutes at room temperature. After the incubation step, the samples were spiked with N. gonorrhoeae plasmid DNA (2500 DNA copies/ml). The samples were incubated for 60 minutes at room temperature. After the incubation step, two-ml volumes from each sample (eight replicates) were heated for 30 minutes at 114° C. to denature the DNA.
A 1-ml volume of the 8 replicates as described above was added to ferrosoferric oxide. A 100-ul volume of 6 M glycine HCl was added to each sample. The DNA-ferrosoferric oxide complexes were separated on a magnet and washed two times with a 900-ul volume of 1 mM glycine HCl to reduce the ionic strength and remove nonspecifically bound materials. The DNA was released from the ferrosoferric oxide with 480-ul volume of elution buffer (88.3 mM KOH, 177.8 mM bicine, 12.1% (v/v) glycerol, and 11.0% (v/v) DMSO [final concentration]).
Strand Displacement Amplification (SDA) was performed according to the manufacturer's instructions (BDProbeTec™ET Chlamydia trachomatis and N. gonorrhoeae Amplified DNA Assay Package Insert L-000203 [November 1999]). A 150-ul volume of each sample was added into a priming microwell. The priming microwell plate was incubated for 20 minutes at room temperature, after which the plate was incubated at 72.5° C. The amplification microwell plate was incubated at 54° C. After 10 minutes, a 100-ul volume from each priming microwell was added into the corresponding amplification microwell. The amplification microwell plate was place in a BD ProbeTec ET instrument. Data was reported as MOTA value (metric other than acceleration).

[3] = test system: intact cells of N. gonorrhoeae; type: cell-based, N. gonorrhoeae ATCC 19424; conditions: for average MOTA values for day 0 versus day 6: 100 mM sodium citrate, sodium fluoride, sodium borate, 5 mM EDTA, urine at 5, 25, 35, and 45° C.; for Average MOTA Value: urine
Description: as §1
The samples were spiked with cells of N. gonorrhoeae at a final concentration of 2500 cells/ml. Each sample was incubated for 6 days at 5, 25, 35, and 45° C. At specific time points (day 0 and 6), the samples were processed by centrifugation at 2000×g as described in Example 2. […] SDA was performed on the cell lysates as described in Example 1.

[4] = test system: N. gonorrhoeae plasmid DNA; assay: Stability of N. gonorrhoeae plasmid DNA in urine, 3 days at room temperature (SDA, MOTA value); type: biochemical, Neisseria gonorrhoeae
Description: The samples were incubated for 3 days at room temperature. […] SDA was performed on the isolated DNA as described in Example 1.

[5] = test system: intact cells of N. gonorrhoeae; type: cell-based, N. gonorrhoeae ATCC 19424; conditions: urine, room temperature; for average amplification MOTA values at day 0 versus day 6: 100 mM sodium citrate, sodium fluoride, sodium borate, 5 mM EDTA
Description: as §1
Forty-milliliter volumes of negative urine was prepared with 100 mM sodium citrate (final concentration); 5, 10, and 15% (v/v) sucrose (final concentration); 5, 10, and 15% (v/v) PVP (final concentration); 5, 10, and 15 mM magnesium chloride (final concentration); 10 and 100 mM sodium fluoride (final concentration); 10 and 100 mM sodium formate (final concentration); 10 and 100 mM sodium borate (final concentration); 0.5 and 5 mM EDTA (final concentration); 0.5 and 5 mM EGTA (final concentration); and without chemical additive. The samples were spiked with cells of N. gonorrhoeae at a final concentration of 2500 cells/ml. Each sample was incubated for 6 days at room temperature. At specific time points (day 0 and 6), the samples were processed by centrifugation at 2000×g as described in Example 2. […] SDA was performed on the cell lysate as described in Example 1.

[6] = test system: intact cells of N. gonorrhoeae; type: cell-based, N. gonorrhoeae ATCC 19424; conditions: for Average MOTA Value: 10 mM potassium EDTA, urine
Description: as §1
i) Potassium EDTA: Seventy-milliliter volumes of pooled negative urine were prepared with 10 mM potassium EDTA (final concentration). The samples were spiked with cells of N. gonorrhoeae at a final concentration of 2000 cells/ml. Each sample was incubated for 14 days at 5, 25, 33, 45, and 60° C. At specific time points (day 0, 6 and 14), the samples were processed by centrifugation at 2000×g as described in Example 3. […] SDA was performed on the cell lysates as described in Example 1.
ii) DNA/RNA Protect™: Seventy-milliliter volumes of pooled negative urine were prepared with 10% (v/v) DNA/RNA Protect™ (final concentration). The samples were spiked with cells of N. gonorrhoeae at a final concentration of 2000 cells/ml. Each sample was incubated for 14 days at 5, 25, 33, 45, and 60° C. At specific time points (day 0, 6 and 14), the samples were processed by centrifugation at 2000×g as described in Example 3. […] SDA was performed on the cell lysates as described in Example 1.

O=C([O-])CC(O)(CC(=O)[O-])C(=O)[O-].[Na+].[Na+].[Na+] [sodium citrate, Sodium citrate, trisodium salt]
time for which stability of intact cells of N. gonorrhoeae in human urine was maintained [1]: ≥ 14 days | Average MOTA Value ([1]; Day 0): 30200 | Average MOTA Value ([1]; Day 6): 25391 | Average MOTA Value ([1]; Day 10): 27522 | Average MOTA Value ([1]; Day 14): 20953 | Average MOTA Value ([2]; 10 mM additive in human urine): 6673 | Average MOTA Value ([2]; 40 mM additive in human urine): 36684 | Average MOTA Value ([2]; 100 mM additive in human urine): 24069 | protection of N. gonorrhoeae plasmid DNA from degradation in human urine by endogenous nucleases [2]: protected N. gonorrhoeae plasmid DNA from degradation | average MOTA values for day 0 versus day 6 [3]: no significant difference | Average MOTA Value ([3]; 100 mM, 5° C., Day 0): 56773 | Average MOTA Value ([3]; 100 mM, 5° C., Day 6): 57701 | Average MOTA Value ([3]; 100 mM, 25° C., Day 0): 59703 | Average MOTA Value ([3]; 100 mM, 25° C., Day 6): 51791 | Average MOTA Value ([3]; 100 mM, 35° C., Day 0): 54238 | Average MOTA Value ([3]; 100 mM, 35° C., Day 6): 51468 | Average MOTA Value ([3]; 100 mM, 45° C., Day 0): 59944 | Average MOTA Value ([3]; 100 mM, 45° C., Day 6): 63623 | Average MOTA Value ([4]; 100 mM, Day 0): 26852 | Average MOTA Value ([4]; 100 mM, Day 3): 30978 | average amplification MOTA values at day 0 versus day 6 [5]: not significantly different | Average MOTA Value ([5]; 100 mM, Day 0): 27310 | Average MOTA Value ([5]; 100 mM, Day 6): 26394

O=C(O)CN(CCN(CC(=O)O)CC(=O)O)CC(=O)O [EDTA, Ethylenediaminetetraacetic acid]
Average MOTA Value ([2]; 10 mM additive in human urine): 16103 | Average MOTA Value ([2]; 20 mM additive in human urine): 16178 | Average MOTA Value ([2]; 40 mM additive in human urine): 20007 | protection of N. gonorrhoeae plasmid DNA from degradation in human urine by endogenous nucleases [2]: protected N. gonorrhoeae plasmid DNA from degradation | Average MOTA Value ([3]; 5 mM, 5° C., Day 0): 50132 | Average MOTA Value ([3]; 5 mM, 5° C., Day 6): 64610 | Average MOTA Value ([3]; 5 mM, 25° C., Day 0): 54871 | Average MOTA Value ([3]; 5 mM, 25° C., Day 6): 66009 | Average MOTA Value ([3]; 5 mM, 35° C., Day 0): 57077 | Average MOTA Value ([3]; 5 mM, 35° C., Day 6): 69291 | Average MOTA Value ([3]; 5 mM, 45° C., Day 0): 62891 | Average MOTA Value ([3]; 5 mM, 45° C., Day 6): 74667 | average MOTA values for day 0 versus day 6 [3]: no significant difference | Average MOTA Value ([4]; 10 mM, Day 0): 32177 | Average MOTA Value ([4]; 10 mM, Day 3): 30445 | Average MOTA Value ([4]; 20 mM, Day 0): 34594 | Average MOTA Value ([4]; 20 mM, Day 3): 31366 | Average MOTA Value ([5]; 0.5 mM, Day 0): 35950 | Average MOTA Value ([5]; 0.5 mM, Day 6): 650 | Average MOTA Value ([5]; 5 mM, Day 0): 32392 | Average MOTA Value ([5]; 5 mM, Day 6): 34445 | average amplification MOTA values at day 0 versus day 6 [5]: not significantly different | time for which stability of intact cells of N. gonorrhoeae in human urine was maintained ([6]; 10 mM EDTA, 5, 27, 33, 45, and 60° C.): ≥ 14 days | Average MOTA Value ([6]; 5° C., Day 0): 26448 | Average MOTA Value ([6]; 5° C., Day 6): 35234 | Average MOTA Value ([6]; 5° C., Day 14): 36205 | Average MOTA Value ([6]; 27° C., Day 0): 26448 | Average MOTA Value ([6]; 27° C., Day 6): 31619 | Average MOTA Value ([6]; 27° C., Day 14): 36994 | Average MOTA Value ([6]; 33° C., Day 0): 26448 | Average MOTA Value ([6]; 33° C., Day 6): 34252 | Average MOTA Value ([6]; 33° C., Day 14): 38183 | Average MOTA Value ([6]; 45° C., Day 0): 26448 | Average MOTA Value ([6]; 45° C., Day 6): 36132 | Average MOTA Value ([6]; 45° C., Day 14): 41115 | Average MOTA Value ([6]; 60° C., Day 0): 26448 | Average MOTA Value ([6]; 60° C., Day 6): 32218 | Average MOTA Value ([6]; 60° C., Day 14): 26259
